Test results reported in ChEMBL document CHEMBL5316291 (J Med Chem, 2023).
Calls of active or inactive are those of the source. The rule behind the calls is not given here.

Columns and labels:
CT26 [1] = assay: Antitumor activity against mouse CT26 cells implanted in po dosed BALB/c mouse assessed as increase in CXCL10 levels measured after 14 days by RT-qPCR analysis; assay type: functional, organism-based; conditions: dose 25-100 mg/kg, time 14.0 day
CT26 [2] = assay: Antitumor activity against mouse CT26 cells implanted in BALB/c mouse assessed as tumor cell agglutination at 25 to 100 mg/kg, po bid measured for 14 days by hematoxylin and eosin staining based fluorescence microscopic analysis; assay type: functional, organism-based; conditions: dose 25-100 mg/kg, time 14.0 day
CT26 [3] = assay: cells; conditions: Mus musculus, CT26, 144 h

Question: Which results are given for `C[C@@H](CN1CC(C(=O)N2CCN(c3ncc(C(F)(F)F)cn3)CC2)C1)Nc1cn[nH]c(=O)c1C(F)(F)F`?
Answer: Activity (CT26 [1]): Dose-Dependent Effect; Activity (CT26 [2]): Active; IC50 (CT26 [3]): 12.8 µM
